Reference: ChEMBL document CHEMBL3286206, “Conventional and microwave assisted synthesis of pyrazolone Mannich bases possessing anti-inflammatory, analgesic, ulcerogenic effect and antimicrobial properties” (Bioorg Med Chem Lett, 2014)
Converted amounts (≈) assume the structure as drawn. The source made the active and inactive calls. The calls are words filed in the database; no cut-off is given here.

How the values were obtained:
Escherichia coli [1] = test: Antimicrobial activity against Escherichia coli assessed as zone of inhibition >8 mm by twofold serial dilution method; type: functional
Rattus norvegicus [2] = test: Antiinflammatory activity in albino rat assessed as inhibition of carrageenan-induced paw edema measured as paw thickness at 0.03 mmol/kg, po administered 1 hr prior to carrageenan challenge measured after 4 hrs (reference value: 1.260 +/- 0.172 mm)
Rattus norvegicus [3] = test: Antiinflammatory activity in albino rat assessed as inhibition of carrageenan-induced paw edema at […], po administered 1 hr prior to carrageenan challenge measured after 4 hrs relative to control; type: functional
Klebsiella pneumoniae [4] = test: Antimicrobial activity against Klebsiella pneumoniae assessed as zone of inhibition by agar diffusion method; type: functional
Micrococcus luteus [5] = test: Antimicrobial activity against Micrococcus luteus assessed as growth inhibition by agar diffusion method; type: functional
Staphylococcus aureus [6] = test: Antimicrobial activity against Staphylococcus aureus assessed as zone of inhibition by agar diffusion method; type: functional
Staphylococcus aureus [7] = test: Antimicrobial activity against Staphylococcus aureus assessed as zone of inhibition >8 mm by twofold serial dilution method; type: functional
Rattus norvegicus [8] = test: Antiinflammatory activity in albino rat assessed as inhibition of carrageenan-induced paw edema at […], po administered 1 hr prior to carrageenan challenge measured after 6 hrs relative to control; type: functional
Mus musculus [9] = test: Analgesic activity in mouse assessed as inhibition of acetic acid-induced writhing measured as potency at 0.03 mM/kg; design: scale not given: the % may be the effect or the level left
Klebsiella pneumoniae [10] = test: Antimicrobial activity against Klebsiella pneumoniae assessed as zone of inhibition >8 mm by twofold serial dilution method; type: functional
Micrococcus luteus [11] = test: Antimicrobial activity against Micrococcus luteus assessed as zone of inhibition by agar diffusion method; type: functional
Mus musculus [12] = test: Analgesic activity in mouse assessed as inhibition of acetic acid-induced writhing at 0.03 mM/kg
Rattus norvegicus [13] = test: Antiinflammatory activity in albino rat assessed as inhibition of carrageenan-induced paw edema measured as paw thickness at 0.03 mmol/kg, po administered 1 hr prior to carrageenan challenge measured after 6 hrs (reference value: 1.081 +/- 0.257 mm)
Escherichia coli [14] = test: Antimicrobial activity against Escherichia coli assessed as zone of inhibition by agar diffusion method; type: functional
Rattus norvegicus [15] = test: Ulcerogenic effect in po dosed rat assessed as lesions of bleedings; type: toxicity, organism-based; conditions: in vivo
Micrococcus luteus [16] = test: Antimicrobial activity against Micrococcus luteus assessed as zone of inhibition >8 mm by twofold serial dilution method; type: functional
Staphylococcus aureus [17] = test: Antimicrobial activity against Staphylococcus aureus assessed as growth inhibition by agar diffusion method; type: functional

Structure (SMILES) | MIC (Escherichia coli [1]) | Activity (Rattus norvegicus [2]) | inhibition in vivo (Rattus norvegicus [3]) | diameter of the inhibition zone (DIZ) (Klebsiella pneumoniae [4]) | growth inhibition (GI) (Micrococcus luteus [5]) | diameter of the inhibition zone (DIZ) (Staphylococcus aureus [6]) | MIC (Staphylococcus aureus [7]) | inhibition in vivo (Rattus norvegicus [8]) | Activity (Mus musculus [9]) | MIC (Klebsiella pneumoniae [10]) | diameter of the inhibition zone (DIZ) (Micrococcus luteus [11]) | inhibition (INH) (Mus musculus [12]) | Activity (Rattus norvegicus [13]) | diameter of the inhibition zone (DIZ) (Escherichia coli [14]) | Activity (Rattus norvegicus [15]) | MIC (Micrococcus luteus [16]) | growth inhibition (GI) (Staphylococcus aureus [17])
CC1=NN(C(=O)c2cc3ccccc3oc2=O)C(=O)C1CNc1ccc(S(N)(=O)=O)cc1 (configuration not stated) | 27.5 µM (≈ 12.5 µg/mL) | 1.079 mm | 68.9% | 15 mm | inactive | 15 mm | 55 µM (≈ 25 µg/mL) | 77.9% | 94.33% | 55 µM (≈ 25 µg/mL) | inactive | 64.93% | 0.873 mm | 12 mm | Non-toxic | – | –
COc1ccc(NCC2C(=O)N(C(=O)c3cc4ccccc4oc3=O)N=C2C)cc1 (configuration not stated) | 30.8 µM (≈ 12.5 µg/mL) | 2.215 mm | 36.1% | 18 mm | inactive | 15 mm | 61.7 µM (≈ 25 µg/mL) | 55.1% | 47.17% | 61.7 µM (≈ 25 µg/mL) | inactive | 32.47% | 1.821 mm | 18 mm | Toxic | – | –
O=C(O)c1cn(C2CC2)c2cc(N3CCNCC3)c(F)cc2c1=O [CIPROFLOXACIN] | 4.72 µM (≈ 1.56 µg/mL) | – | – | 17 mm | – | 24 mm | 9.43 µM (≈ 3.12 µg/mL) | – | – | 0.59 µM (≈ 0.195 µg/mL) | 25 mm | – | – | – | – | 0.59 µM (≈ 0.195 µg/mL) | –
COc1ccc2c(c1)c(CC(=O)O)c(C)n2C(=O)c1ccc(Cl)cc1 [INDOMETHACIN] | – | 1.144 mm | 67.8% | – | – | – | – | 76% | 100% | – | – | 68.83% | 0.985 mm | – | – | – | –
CC1=NN(C(=O)c2cc3ccccc3oc2=O)C(=O)C1CNc1ccc([N+](=O)[O-])cc1 (configuration not stated) | 119 µM (≈ 50 µg/mL) | 1.32 mm | 61.9% | 12 mm | – | 12 mm | 119 µM (≈ 50 µg/mL) | 72% | 86.79% | 119 µM (≈ 50 µg/mL) | 15 mm | 59.74% | 1.107 mm | 15 mm | Non-toxic | 119 µM (≈ 50 µg/mL) | –
CC1=NN(C(=O)c2cc3ccccc3oc2=O)C(=O)C1CNc1c(O)cc(S(=O)(=O)O)c2ccccc12 (configuration not stated) | 24 µM (≈ 12.5 µg/mL) | 2.715 mm | 21.6% | 18 mm | inactive | 15 mm | 48 µM (≈ 25 µg/mL) | 45.3% | 79.25% | 48 µM (≈ 25 µg/mL) | inactive | 54.55% | 2.16 mm | 15 mm | – | – | –
CC1=NN(C(=O)c2cc3ccccc3oc2=O)C(=O)C1CNc1ccc(Cl)cc1 (configuration not stated) | 30.5 µM (≈ 12.5 µg/mL) | 1.956 mm | 43.5% | 12 mm | – | inactive | – | 71.5% | 103.78% | 61 µM (≈ 25 µg/mL) | 18 mm | 71.43% | 1.125 mm | 12 mm | Toxic | 61 µM (≈ 25 µg/mL) | inactive
CC1=NN(C(=O)c2cc3ccccc3oc2=O)C(=O)C1CNc1ccccn1 (configuration not stated) | 133 µM (≈ 50 µg/mL) | 2.389 mm | 31.1% | 15 mm | – | 15 mm | 66.4 µM (≈ 25 µg/mL) | 50.3% | 43.4% | 66.4 µM (≈ 25 µg/mL) | 12 mm | 29.87% | 1.961 mm | 15 mm | Toxic | 66.4 µM (≈ 25 µg/mL) | –
CC1=NN(C(=O)c2cc3ccccc3oc2=O)C(=O)C1CNc1cccc(S(N)(=O)=O)c1 (configuration not stated) | 55 µM (≈ 25 µg/mL) | 1.116 mm | 67.8% | 12 mm | inactive | 18 mm | 55 µM (≈ 25 µg/mL) | 79.9% | 49.06% | 55 µM (≈ 25 µg/mL) | inactive | 33.77% | 0.793 mm | 12 mm | Non-toxic | – | –
CC1=NN(C(=O)c2cc3ccccc3oc2=O)C(=O)C1CNc1ccc(C(=O)O)cc1 (configuration not stated) | 119 µM (≈ 50 µg/mL) | 1.26 mm | 63.6% | 14 mm | – | 12 mm | 59.6 µM (≈ 25 µg/mL) | 72.6% | 88.68% | 119 µM (≈ 50 µg/mL) | 18 mm | 61.04% | 1.081 mm | 12 mm | Non-toxic | 119 µM (≈ 50 µg/mL) | –
CC1=NN(C(=O)c2cc3ccccc3oc2=O)C(=O)C1CNc1ccc(O)cc1 (configuration not stated) | 63.9 µM (≈ 25 µg/mL) | 2.231 mm | 35.6% | 18 mm | – | 12 mm | 63.9 µM (≈ 25 µg/mL) | 50.7% | 60.38% | 63.9 µM (≈ 25 µg/mL) | 18 mm | 41.56% | 1.947 mm | 18 mm | Toxic | 128 µM (≈ 50 µg/mL) | –
CC1=NN(C(=O)c2cc3ccccc3oc2=O)C(=O)C1CNc1ccc(O)c(C(=O)O)c1 (configuration not stated) | 57.4 µM (≈ 25 µg/mL) | 2.396 mm | 30.9% | 12 mm | – | 12 mm | 115 µM (≈ 50 µg/mL) | 50.9% | 50.94% | 115 µM (≈ 50 µg/mL) | 12 mm | 35.06% | 1.939 mm | 12 mm | Non-toxic | 115 µM (≈ 50 µg/mL) | –
